Results as given in patent EP2138169B1, “Transdermal delivery system of hormones without penetration enhancers” (Bayer Intellectual Property GmbH, priority 2003, dated 2005).

Legend:
clinical = assay: clinical; set-up: species or system women; conditions: female, human, in vivo
Source text: The effect on ovulation inhibition, serum drug concentrations and safety of a patch of the invention was investigated in a selected population of women. The study design was based on the requirements of the EMEA quideline for clinical studies with contraceptive steroids (Commitee for Proprietary Medicinal Products, CPMP/EWP 519/98).
Arcare MA-24A® is a polyisobutylene based adhesive from Adhesive Research.
The treatment phase includes a period of two menstrual cycles. The first treatment in the first cycle began one day after the volunteers started menstruating in this cycle by application of a patch. A total of three test patches were applied in intervals of 7 days between, such as application at days 1, 8 and 15 of the first cycle - each at different application sites- during each treatment cycle. Each patch was worn for 7 days, then replaced with a new patch to complete a total of 21 days of continuous use. This was followed by a 7-day treatment-free interval before the next treatment period started with a total of three patches applied, each applied with an interval of 7 days. If the patches were lost or became more than 40% detached, a new patch was applied.
The AUC was calculated according to the linear trapezoidal rule. […]
After incubation and centrifugation, the resultant precipitate was redissolved with NaOH. The assay has a lower limit of quantification of approx. 250 pg/ml.

[1] = cited from earlier work

Structure (SMILES)	Cmax (clinical; Cmax (mean) of ethinyl estradiol (EE))	Tmax (clinical; Tmax (mean) of ethinyl estradiol (EE))	Maximal plasma levels ([1]; US 5,376,377, ethylene vinyl acrylate adhesive layer, Gestodene and ethinylestradiol)	maximal plasma levels of Gestodene ([1]; WO 92/07590, transdermal compositions with penetration enhancers, Gestodene and an estrogen)
C#C[C@]1(O)CC[C@H]2[C@@H]3CCc4cc(O)ccc4[C@H]3CC[C@@]21C [Ethinylestradiol]	0.0456 ng/mL	48 h		
C#C[C@]1(O)C=C[C@H]2[C@@H]3CCC4=CC(=O)CC[C@@H]4[C@H]3CC[C@@]21CC [Gestodene, 13β-Ethyl-17α-ethynyl-17β-hydroxy-4,15-gonadien-3-one]			about 0.8 ng/ml	about 0.9 ng/ml
